In brackets after ≈: the same amount, converted by molar mass.
Legend:
[1] = system: Escherichia coli; assay: Antibacterial activity against Escherichia coli 10675 assessed as inhibition of bacterial growth incubated for 16 to 20 hrs; format: functional; settings: time 16-20 hrs
[2] = system: Klebsiella pneumoniae; assay: Antibacterial activity against Klebsiella pneumoniae 10692 assessed as inhibition of bacterial growth incubated for 16 to 20 hrs; format: functional; settings: time 16-20 hrs
[3] = system: Acinetobacter baumannii; assay: Antibacterial activity against Acinetobacter baumannii 10591 assessed as inhibition of bacterial growth incubated for 16 to 20 hrs; format: functional; settings: time 16-20 hrs
[4] = system: Pseudomonas aeruginosa; assay: Antibacterial activity against Pseudomonas aeruginosa 19660 assessed as inhibition of bacterial growth incubated for 16 to 20 hrs; format: functional; settings: time 16-20 hrs
[5] = system: Klebsiella aerogenes; assay: Antibacterial activity against Enterobacter aerogenes 15630 assessed as inhibition of bacterial growth incubated for 16 to 20 hrs; format: functional; settings: time 16-20 hrs
[6] = system: Klebsiella oxytoca; assay: Antibacterial activity against Klebsiella oxytoca 13985 assessed as inhibition of bacterial growth incubated for 16 to 20 hrs; format: functional; settings: time 16-20 hrs
[7] = system: Salmonella typhimurium; assay: Antibacterial activity against Salmonella typhimurium DT104 assessed as inhibition of bacterial growth incubated for 16 to 20 hrs; format: functional, Salmonella enterica subsp. enterica serovar Typhimurium; settings: Salmonella enterica, time 16-20 hrs
[8] = system: Salmonella enterica; assay: Antibacterial activity against Salmonella enterica 15455 assessed as inhibition of bacterial growth incubated for 16 to 20 hrs; format: functional; settings: time 16-20 hrs
[9] = system: Vibrio vulnificus; assay: Antibacterial activity against Vibrio vulnificus 204 assessed as inhibition of bacterial growth incubated for 16 to 20 hrs; format: functional; settings: time 16-20 hrs
[10] = system: Yersinia enterocolitica; assay: Antibacterial activity against Yersinia enterocolitica 13999 assessed as inhibition of bacterial growth incubated for 16 to 20 hrs; format: functional; settings: time 16-20 hrs
[11] = system: Klebsiella pneumoniae; assay: Antibacterial activity against Klebsiella pneumoniae BAA 2473 assessed as inhibition of bacterial growth incubated for 16 to 20 hrs; format: functional; settings: time 16-20 hrs
[12] = system: Staphylococcus aureus; assay: Antibacterial activity against Staphylococcus aureus 10780 assessed as inhibition of bacterial growth incubated for 16 to 20 hrs; format: functional; settings: time 16-20 hrs
[13] = system: Staphylococcus haemolyticus; assay: Antibacterial activity against Staphylococcus haemolyticus 15237 assessed as inhibition of bacterial growth incubated for 16 to 20 hrs; format: functional; settings: time 16-20 hrs
[14] = system: Enterococcus faecium; assay: Antibacterial activity against Enterococcus faecium 10067 assessed as inhibition of bacterial growth incubated for 16 to 20 hrs; format: functional; settings: time 16-20 hrs
[15] = system: Enterococcus faecalis; assay: Antibacterial activity against Enterococcus faecalis 10066 assessed as inhibition of bacterial growth incubated for 16 to 20 hrs; format: functional; settings: time 16-20 hrs
[16] = system: Rhizopus arrhizus; assay: Antifungal activity against Rhizopus oryzae 34550 assessed as inhibition of fungal growth incubated for 16 to 20 hrs; format: functional; settings: time 16-20 hrs
[17] = system: Escherichia coli; assay: Bactericidal activity against Escherichia coli 10675 assessed as inhibition of bacterial growth incubated for 16 to 20 hrs; format: functional; settings: time 16-20 hrs
[18] = system: Klebsiella pneumoniae; assay: Bactericidal activity against Klebsiella pneumoniae 10692 assessed as inhibition of bacterial growth incubated for 16 to 20 hrs; format: functional; settings: time 16-20 hrs
[19] = system: Acinetobacter baumannii; assay: Bactericidal activity against Acinetobacter baumannii 10591 assessed as inhibition of bacterial growth incubated for 16 to 20 hrs; format: functional; settings: time 16-20 hrs
[20] = system: Pseudomonas aeruginosa; assay: Bactericidal activity against Pseudomonas aeruginosa 19660 assessed as inhibition of bacterial growth incubated for 16 to 20 hrs; format: functional; settings: time 16-20 hrs
[21] = system: Klebsiella aerogenes; assay: Bactericidal activity against Enterobacter aerogenes 15630 assessed as inhibition of bacterial growth incubated for 16 to 20 hrs; format: functional; settings: time 16-20 hrs
[22] = system: Klebsiella oxytoca; assay: Bactericidal activity against Klebsiella oxytoca 13985 assessed as inhibition of bacterial growth incubated for 16 to 20 hrs; format: functional; settings: time 16-20 hrs
[23] = system: Salmonella typhimurium; assay: Bactericidal activity against Salmonella typhimurium DT104 assessed as inhibition of bacterial growth incubated for 16 to 20 hrs; format: functional, Salmonella enterica subsp. enterica serovar Typhimurium; settings: Salmonella enterica, time 16-20 hrs
[24] = system: Salmonella enterica; assay: Bactericidal activity against Salmonella enterica 15455 assessed as inhibition of bacterial growth incubated for 16 to 20 hrs; format: functional; settings: time 16-20 hrs
[25] = system: Vibrio vulnificus; assay: Bactericidal activity against Vibrio vulnificus 204 assessed as inhibition of bacterial growth incubated for 16 to 20 hrs; format: functional; settings: time 16-20 hrs
[26] = system: Yersinia enterocolitica; assay: Bactericidal activity against Yersinia enterocolitica 13999 assessed as inhibition of bacterial growth incubated for 16 to 20 hrs; format: functional; settings: time 16-20 hrs
[27] = system: Klebsiella pneumoniae; assay: Bactericidal activity against Klebsiella pneumoniae BAA 2473 assessed as inhibition of bacterial growth incubated for 16 to 20 hrs; format: functional; settings: time 16-20 hrs
[28] = system: Staphylococcus aureus; assay: Bactericidal activity against Staphylococcus aureus 10780 assessed as inhibition of bacterial growth incubated for 16 to 20 hrs; format: functional; settings: time 16-20 hrs
[29] = system: Staphylococcus haemolyticus; assay: Bactericidal activity against Staphylococcus haemolyticus 15237 assessed as inhibition of bacterial growth incubated for 16 to 20 hrs; format: functional; settings: time 16-20 hrs
[30] = system: Enterococcus faecium; assay: Bactericidal activity against Enterococcus faecium 10067 assessed as inhibition of bacterial growth incubated for 16 to 20 hrs; format: functional; settings: time 16-20 hrs
[31] = system: Enterococcus faecalis; assay: Bactericidal activity against Enterococcus faecalis 10066 assessed as inhibition of bacterial growth incubated for 16 to 20 hrs; format: functional; settings: time 16-20 hrs
[32] = system: Rhizopus arrhizus; assay: Fungicidal activity against Rhizopus oryzae 34550 assessed as inhibition of fungal growth incubated for 72 hrs; format: functional
[33] = system: Escherichia coli; assay: Antibacterial activity against Escherichia coli 10675 assessed as inhibition of bacterial growth incubated for 16 to 20 hrs in presence of human serum; format: functional; settings: time 16-20 hrs
[34] = system: Acinetobacter baumannii; assay: Antibacterial activity against Acinetobacter baumannii 10591 assessed as inhibition of bacterial growth incubated for 16 to 20 hrs in presence of human serum; format: functional; settings: time 16-20 hrs
[35] = system: Pseudomonas aeruginosa; assay: Antibacterial activity against Pseudomonas aeruginosa 19660 assessed as inhibition of bacterial growth incubated for 16 to 20 hrs in presence of human serum; format: functional; settings: time 16-20 hrs
[36] = system: Klebsiella oxytoca; assay: Antibacterial activity against Klebsiella oxytoca 13985 assessed as inhibition of bacterial growth incubated for 16 to 20 hrs in presence of human serum; format: functional; settings: time 16-20 hrs
[37] = system: Salmonella typhimurium; assay: Antibacterial activity against Salmonella typhimurium DT104 assessed as inhibition of bacterial growth incubated for 16 to 20 hrs in presence of human serum; format: functional, Salmonella enterica subsp. enterica serovar Typhimurium; settings: Salmonella enterica, time 16-20 hrs
[38] = system: Salmonella enterica; assay: Antibacterial activity against Salmonella enterica 15455 assessed as inhibition of bacterial growth incubated for 16 to 20 hrs in presence of human serum; format: functional; settings: time 16-20 hrs
[39] = system: Vibrio vulnificus; assay: Antibacterial activity against Vibrio vulnificus 204 assessed as inhibition of bacterial growth incubated for 16 to 20 hrs in presence of human serum; format: functional; settings: time 16-20 hrs
[40] = system: Klebsiella pneumoniae; assay: Antibacterial activity against Klebsiella pneumoniae TL 297 assessed as inhibition of bacterial growth incubated for 16 to 20 hrs in presence of human serum; format: functional; settings: time 16-20 hrs
[41] = system: Enterococcus faecium; assay: Antibacterial activity against Enterococcus faecium 10067 assessed as inhibition of bacterial growth incubated for 16 to 20 hrs in presence of human serum; format: functional; settings: time 16-20 hrs
[42] = system: Escherichia coli; assay: Bactericidal activity against Escherichia coli 10675 assessed as inhibition of bacterial growth incubated for 16 to 20 hrs in presence of human serum; format: functional; settings: time 16-20 hrs
[43] = system: Acinetobacter baumannii; assay: Bactericidal activity against Acinetobacter baumannii 10591 assessed as inhibition of bacterial growth incubated for 16 to 20 hrs in presence of human serum; format: functional; settings: time 16-20 hrs
[44] = system: Pseudomonas aeruginosa; assay: Bactericidal activity against Pseudomonas aeruginosa 19660 assessed as inhibition of bacterial growth incubated for 16 to 20 hrs in presence of human serum; format: functional; settings: time 16-20 hrs
[45] = system: Klebsiella oxytoca; assay: Bactericidal activity against Klebsiella oxytoca 13985 assessed as inhibition of bacterial growth incubated for 16 to 20 hrs in presence of human serum; format: functional; settings: time 16-20 hrs
[46] = system: Salmonella typhimurium; assay: Bactericidal activity against Salmonella typhimurium DT104 assessed as inhibition of bacterial growth incubated for 16 to 20 hrs in presence of human serum; format: functional, Salmonella enterica subsp. enterica serovar Typhimurium; settings: Salmonella enterica, time 16-20 hrs
[47] = system: Salmonella enterica; assay: Bactericidal activity against Salmonella enterica 15455 assessed as inhibition of bacterial growth incubated for 16 to 20 hrs in presence of human serum; format: functional; settings: time 16-20 hrs
[48] = system: Vibrio vulnificus; assay: Bactericidal activity against Vibrio vulnificus 204 assessed as inhibition of bacterial growth incubated for 16 to 20 hrs in presence of human serum; format: functional; settings: time 16-20 hrs
[49] = system: Klebsiella pneumoniae; assay: Bactericidal activity against Klebsiella pneumoniae TL 297 assessed as inhibition of bacterial growth incubated for 16 to 20 hrs in presence of human serum; format: functional; settings: time 16-20 hrs
[50] = system: Enterococcus faecium; assay: Bactericidal activity against Enterococcus faecium 10067 assessed as inhibition of bacterial growth incubated for 16 to 20 hrs in presence of human serum; format: functional; settings: time 16-20 hrs
[51] = system: Rhizopus arrhizus; assay: Fungicidal activity against Rhizopus oryzae 34550 assessed as inhibition of fungal growth incubated for 16 to 20 hrs in presence of human serum; format: functional; settings: time 16-20 hrs

C[C@@H](O)[C@H]1C(=O)N2C(C(=O)O)=C(S[C@@H]3CN[C@H](C(=O)N(C)C)C3)[C@H](C)[C@H]12 [MEROPENEM]
MIC [1]: 0.2 µM (≈ 0.0767 µg/mL)
MIC [2]: 0.2 µM (≈ 0.0767 µg/mL)
MIC [3]: 6.25 µM (≈ 2.4 µg/mL)
MIC [4]: 3.13 µM (≈ 1.2 µg/mL)
MIC [5]: 0.1 µM (≈ 0.0383 µg/mL)
MIC [6]: < 0.39 µM
MIC [7]: < 1.56 µM
MIC [8]: < 1.56 µM
MIC [9]: < 0.39 µM
MIC [10]: < 1.56 µM
MIC [11]: 800 µM (≈ 307 µg/mL)
MIC [12]: 0.78 µM (≈ 0.299 µg/mL)
MIC [13]: < 1.56 µM
MIC [14]: 50 µM (≈ 19.2 µg/mL)
MIC [15]: 12.5 µM (≈ 4.79 µg/mL)
MIC [16]: > 100 µM
MBC [17]: 0.2 µM (≈ 0.0767 µg/mL)
MBC [18]: 0.2 µM (≈ 0.0767 µg/mL)
MBC [19]: 6.25 µM (≈ 2.4 µg/mL)
MBC [20]: 6.25 µM (≈ 2.4 µg/mL)
MBC [21]: 6.25 µM (≈ 2.4 µg/mL)
MBC [22]: 0.1 µM (≈ 0.0383 µg/mL)
MBC [23]: > 100 µM
MBC [24]: < 1.56 µM
MBC [25]: < 0.39 µM
MBC [26]: < 1.56 µM
MBC [27]: 400 µM (≈ 153 µg/mL)
MBC [28]: 3.13 µM (≈ 1.2 µg/mL)
MBC [29]: < 1.56 µM
MBC [30]: 100 µM (≈ 38.3 µg/mL)
MBC [31]: 100 µM (≈ 38.3 µg/mL)
MFC [32]: > 100 µM
MIC [33]: 0.1 µM
MIC [34]: 3.13 µM
MIC [35]: 3.13 µM
MIC [36]: < 0.39 µM
MIC [37]: < 0.369 µM
MIC [38]: < 0.39 µM
MIC [39]: < 0.39 µM
MIC [40]: 200 µM
MIC [41]: 100 µM
MBC [42]: 0.1 µM
MBC [43]: 6.25 µM
MBC [44]: 6.25 µM
MBC [45]: < 0.39 µM
MBC [46]: < 0.39 µM
MBC [47]: < 0.39 µM
MBC [48]: < 0.39 µM
MBC [49]: 400 µM
MBC [50]: 100 µM
MFC [51]: 100 µM

From ChEMBL document CHEMBL5505958, “Optimization of sequence and chiral content enhances therapeutic potential of tilapia piscidin peptides” (Eur J Med Chem, 2024)
